Structures are written as SMILES.

This is an account of results in patent US11077210B2, “Near-infrared fluorescent contrast bioimaging agents and methods of use thereof” (Beth Israel Deaconess Medical Center, priority 2013, dated 2021).

What all share (assay type): in vivo
One assay deals with brown fat. The assay is described as follows: Brown adipose tissue NIR fluorescence imaging (FLARE). To be noted: 25 g male mouse, 25 nmol intravenously, 4 hours; Channel 1 (700 nm) or Channel 2 (800 nm). As to the method:
(§1) Absorbance and fluorescence emission spectra were measured using fiber optic HR2000 absorbance (200-1100 nm) and USB2000FL fluorescence (350-1000 nm) spectrometers (Ocean Optics, Dunedin, Fla.). Excitation was provided by a 532 nm green laser pointer (Opcom Inc., Xiamen, China) set to 5 mW, a 655 nm red laser pointer (Opcom Inc., Xiamen, China) set to 5 mW, or a 770 nm NIR laser diode light source (Electro Optical Components, Santa Rosa, Calif.) set to 10 mW and coupled through a 300 μm core diameter, NA 0.22 fiber (Fiberguide Industries, Stirling, N.J.). In silico calculations of the partition coefficient (log D at pH 7.4) and surface molecular charge and hydrophobicity were calculated using MarvinSketch 5.2.1 by taking major microspecies at pH 7.4 (ChemAxon, Budapest, Hungary). NIR Fluorescence Imaging System The dual-NIR channel FLARE′ imaging system has been described in detail previously (26-28). […] Color and two independent NIR fluorescence emission images (≈700 nm for Channel 1 and ≈800 nm for Channel 2) were acquired simultaneously with custom software at rates up to 15 Hz over a 15 cm diameter field of view. NIR fluorescence from Channel 1 was pseudo-colored in red and NIR fluorescence from Channel 2 was pseudo-colored in lime green prior to merger with the color video image. […] Animal Models and Intraoperative NIR Fluorescence Imaging […]

A further assay concerns thyroid. The assay is described as follows: Thyroid NIR fluorescence imaging (FLARE). To be noted: 35 kg female pig, 5 μmol intravenously, 4 hours; Channel 1 (700 nm) or Channel 2 (800 nm). As to the method: as §1
For another assay, the system named is parathyroid. The experiment in a line: Parathyroid NIR fluorescence imaging (FLARE). The settings on record: 35 kg female pig, 5 μmol intravenously, 4 hours; Channel 1 (700 nm) or Channel 2 (800 nm). As to the method:
as §1

For a further assay, the system named is pancreas. The assay is described as follows: Pancreas NIR fluorescence imaging (FLARE). The settings on record: 35 kg female pig, 5 μmol intravenously, 4 hours; Channel 1 (700 nm) or Channel 2 (800 nm). On the procedure:
as §1

A further assay has as its system salivary glands. The assay is described as follows: Salivary gland NIR fluorescence imaging (FLARE). The settings on record: 25 g male mouse, 25 nmol intravenously, 4 hours; Channel 1 (700 nm) or Channel 2 (800 nm). On the procedure:
as §1

A further assay relates to white adipose tissue. The assay is described as follows: White adipose tissue NIR fluorescence imaging (FLARE). To be noted: 25 g male mouse, 25 nmol intravenously, 4 hours; Channel 1 (700 nm) or Channel 2 (800 nm). As to the method:
as §1

For a further assay, the system named is seminal vesicle. The experiment in a line: Seminal vesicle NIR fluorescence imaging (FLARE). The settings on record: 25 g male mouse, 25 nmol intravenously, 4 hours; Channel 1 (700 nm) or Channel 2 (800 nm). As to the method:
as §1

The subject of the next assay is brain grey matter. The experiment in a line: Brain grey matter NIR fluorescence imaging (FLARE). To be noted: 25 g male mouse, 25 nmol intravenously, 4 hours; Channel 1 (700 nm) or Channel 2 (800 nm). On the procedure:
as §1

The next assay deals with pan lymph nodes. The experiment in a line: Pan lymph node NIR fluorescence imaging (FLARE). To be noted: 250 g male rat, 20 nmol intravenously, 4 hours; Channel 1 (700 nm) or Channel 2 (800 nm). On the procedure: as §1
The test system of a further assay is ureters. The experiment in a line: Ureter NIR fluorescence imaging (FLARE). The settings on record: 35 kg female pig, 5 μmol intravenously, waiting period 30 min, imaged over next 4 hours; Channel 1 (700 nm) or Channel 2 (800 nm). On the procedure: as §1
The subject of a further assay is spleen. The experiment in a line: Spleen NIR fluorescence imaging (FLARE). To be noted: 25 g male mouse, 25 nmol intravenously, 4 hours; Channel 1 (700 nm) or Channel 2 (800 nm). On the procedure: as §1
The test system of the next assay is adrenal. The experiment in a line: Adrenal NIR fluorescence imaging (FLARE). The settings on record: 35 kg female pig, 5 μmol intravenously, 4 hours; Channel 1 (700 nm) or Channel 2 (800 nm). On the procedure:
as §1

The next assay concerns gallbladder. The assay is described as follows: Gallbladder NIR fluorescence imaging (FLARE). The settings on record: 25 g male mouse, 25 nmol intravenously, 4 hours; Channel 1 (700 nm) or Channel 2 (800 nm). As to the method:
as §1

The next assay deals with bile duct. The experiment in a line: Bile duct NIR fluorescence imaging (FLARE). To be noted: 35 kg female pig, 5 μmol intravenously, 4 hours; Channel 1 (700 nm) or Channel 2 (800 nm). On the procedure:
as §1

The subject of the next assay is thoracic duct. The experiment in a line: Thoracic duct NIR fluorescence imaging (FLARE). To be noted: 35 kg female pig, 5 μmol subcutaneously into the lower leg, 30 minutes; Channel 1 (700 nm) or Channel 2 (800 nm). On the procedure:
as §1

The next assay concerns choroid plexus. The experiment in a line: Choroid plexus NIR fluorescence imaging (FLARE). The settings on record: 25 g male mouse, 25 nmol intravenously, 4 hours; Channel 1 (700 nm) or Channel 2 (800 nm). On the procedure:
as §1

A further assay concerns CSF. The assay is described as follows: CSF NIR fluorescence imaging (FLARE). To be noted: 35 kg female pig, 5 μmol intravenously, 4 hours; Channel 1 (700 nm) or Channel 2 (800 nm). As to the method: as §1
The next assay relates to ovaries. The experiment in a line: Ovary NIR fluorescence imaging (FLARE). The settings on record: 25 g female mouse, 25 nmol intravenously, 4 hours; Channel 1 (700 nm) or Channel 2 (800 nm). As to the method:
as §1

The next assay concerns pituitary gland. The experiment in a line: Pituitary gland NIR fluorescence imaging (FLARE). To be noted: 25 g male mouse, 25 nmol intravenously, 4 hours; Channel 1 (700 nm) or Channel 2 (800 nm). As to the method: as §1

`CCCCN1/C(=C/C=C/C=C/c2sc3ccccc3[n+]2CCCC)Sc2ccccc21` [SP30]: in the assay on brown fat, the “NIR fluorescence contrast of the brown fat” value is “highlighted with high contrast”.
The same measure, in the same setting: to `CN1/C(=C/C=C/C=C/C=C/C2=[N+](C)c3ccc(Br)cc3C2(C)C)C(C)(C)c2cc(Br)ccc21` [QBN1] belongs “highlighted with high contrast”.
With `CN1/C(=C/C=C/C=C/C2=[N+](C)c3ccc(F)cc3C2(C)C)C(C)(C)c2cc(F)ccc21` [T14], in the assay with thyroid, the “NIR fluorescence contrast of the thyroid” value is “highlighted with high contrast”. The “NIR fluorescence contrast of the parathyroid” value with parathyroid is recorded as “highlighted with high contrast”. Besides, the “NIR fluorescence contrast of the pancreas” value in the assay on pancreas is listed as “highlighted with high contrast”.
In the case of `CNCCCN1/C(=C/C=C/C=C/c2sc3ccccc3[n+]2CCCNC)Sc2ccccc21` [ZK211], in the assay on salivary glands, the “NIR fluorescence contrast of the salivary glands” value is “highlighted with high contrast”.
Take `CCCCN1/C(=C/C=C/C=C/C=C/C2=[N+](CCCC)c3ccc(Cl)cc3C2(C)C)C(C)(C)c2cc(Cl)ccc21` [AH34]: the “NIR fluorescence contrast of the white adipose tissue” value with white adipose tissue is “highlighted with high contrast”.
Regarding `CC1(C)C(/C=C/C2=C(Sc3ccc(CC(=O)O)cc3)C(=C/C=C3/N(CCC[N+](C)(C)C)c4ccc(S(=O)(=O)O)cc4C3(C)C)/CCC2)=[N+](CCC[N+](C)(C)C)c2ccc(S(=O)(=O)O)cc21` [CNN2], the “NIR fluorescence contrast of the seminal vesicle” value in the assay on seminal vesicle was “highlighted with high contrast”.
In the case of `CCN(CC)c1ccc2nc3ccc(=[N+](CC)CC)cc-3oc2c1` [WuA96], in the assay with brain grey matter, the “NIR fluorescence contrast of the brain grey matter” value is “highlighted with high contrast”.
On to `CC1(C)C(/C=C/C(Br)=C/C=C2/N(CCC[N+](C)(C)C)c3ccc(Br)cc3C2(C)C)=[N+](CCC[N+](C)(C)C)c2ccc(Br)cc21` [A150], for which, in the assay on pan lymph nodes, the “NIR fluorescence contrast of all lymph nodes” value was “highlighted with high contrast”.
`CC1(C)C(/C=C/C(=C/C=C2/N(CCC[N+](C)(C)C)c3ccc(S(=O)(=O)O)cc3C2(C)C)Oc2ccc(CCC(=O)O)cc2)=[N+](CCC[N+](C)(C)C)c2ccc(S(=O)(=O)O)cc21` [LN15]: in the assay with ureters, the “NIR fluorescence contrast of the ureter” value is “highlighted with high contrast”.
For the molecule `CC1(C)C(/C=C/C=C/C=C/C=C2/N(CCCc3ccccc3)c3ccccc3C2(C)C)=[N+](CCCc2ccccc2)c2ccccc21` [AL29], in the assay on spleen, the “NIR fluorescence contrast of the spleen” value was “highlighted with high contrast”.
Turning to `CC1(C)C(/C=C/C2=C(c3ccc(CCC(=O)O)cc3)C(=C/C=C3/N(CCC[N+](C)(C)C)c4ccc(S(=O)(=O)O)cc4C3(C)C)/CCC2)=[N+](CCC[N+](C)(C)C)c2ccc(S(=O)(=O)O)cc21` [A71], the “NIR fluorescence contrast of the ureter” value in the assay on ureters is recorded as “highlighted with high contrast”.
As to `CC1(C)C(/C=C/C=C/C=C2/N(CCCc3ccccc3)c3ccc4ccccc4c3C2(C)C)=[N+](CCCc2ccccc2)c2ccc3ccccc3c21` [E16], the “NIR fluorescence contrast of the adrenal” value with adrenal was “highlighted with high contrast”.
For `CN1/C(=C/C2=CC3=C/C(=C/c4sc5cc(O)ccc5[n+]4C)CCC3CC2)Sc2cc(O)ccc21` (stereo not shown) [ZK198], in the assay with gallbladder, the “NIR fluorescence contrast of the gallbladder” value is “highlighted with high contrast”. Also, the “NIR fluorescence contrast of the bile duct” value with bile duct was “highlighted with high contrast”. In the assay on thoracic duct, the “NIR fluorescence contrast of the thoracic duct” value is on record as “highlighted with high contrast”.
As for `CN1/C(=C/C=C/C=C/c2sc3ccccc3[n+]2C)Sc2ccccc21` [SP28], the “NIR fluorescence contrast of the choroid plexus” value with choroid plexus is recorded as “highlighted with high contrast”.
Turning to `CN(C)CCCN1/C(=C/C=C/C=C/c2sc3cc(O)ccc3[n+]2CCCN(C)C)Sc2cc(O)ccc21` [SP66], the “NIR fluorescence contrast of the CSF” value in the assay on CSF is recorded as “highlighted with high contrast”.
Regarding `CCCCN1/C(=C/C=C/C=C/C=C/C2=[N+](CCCC)c3ccccc3C2(C)C)C(C)(C)c2ccccc21` [AL27], in the assay on adrenal, the “NIR fluorescence contrast of the adrenal” value is “highlighted with high contrast”. The “NIR fluorescence contrast of the ovaries” value in the assay on ovaries is “highlighted with high contrast”.
Consider `CN1\C(=C/C=C/C=C/C2=[N+](C)c3cc4c(cc3C2(C)C)OCO4)C(C)(C)c2cc3c(cc21)OCO3` [NRB1], for which the “NIR fluorescence contrast of the salivary glands” value with salivary glands was “highlighted with high contrast”.
Turning to `CC1(C)C(/C=C/C(Br)=C/C=C2/N(CCC[N+](C)(C)C)c3ccc(S(=O)(=O)O)cc3C2(C)C)=[N+](CCC[N+](C)(C)C)c2ccc(S(=O)(=O)O)cc21` [A106], in the assay on bile duct, the “NIR fluorescence contrast of the bile duct” value was “highlighted with high contrast”. Further, in the assay on thoracic duct, the “NIR fluorescence contrast of the thoracic duct” value is “highlighted with high contrast”.
Regarding `CN1/C(=C/C=C/C=C/C=C/c2sc3ccccc3[n+]2C)Sc2ccccc21` [ZK208], the “NIR fluorescence contrast of the choroid plexus” value in the assay on choroid plexus was “highlighted with high contrast”.
Consider `CC1(C)C(/C=C/C(Br)=C/C=C2/N(CCCc3ccccc3)c3ccc4ccccc4c3C2(C)C)=[N+](CCCc2ccccc2)c2ccc3ccccc3c21` [E24], for which, in the assay on spleen, the “NIR fluorescence contrast of the spleen” value is recorded as “highlighted with high contrast”.
As for `CCCC[N+]1=C(/C=C/C=C/C=C/C=C2/N(C)c3ccccc3C2(C)C)C(C)(C)c2cc(OC)ccc21` [ZK189], in the assay on brain grey matter, the “NIR fluorescence contrast of the brain grey matter” value is “highlighted with high contrast”.
Regarding `CCN(CC)c1ccc(/C=C/C2=CC(/C=C/c3ccc(N(CC)CC)cc3)=[O+][B-](F)(F)O2)cc1` [PS31], in the assay on white adipose tissue, the “NIR fluorescence contrast of the white adipose tissue” value was “highlighted with high contrast”.
Turning to `COc1ccc2c(c1)C(C)(C)C(/C=C/C=C/C=C/C=C1/N(C)c3ccc(OC)cc3C1(C)C)=[N+]2C` [AL22], the “NIR fluorescence contrast of the pancreas” value in the assay on pancreas is “highlighted with high contrast”. Moreover, the “NIR fluorescence contrast of the pituitary gland” value in the assay with pituitary gland is “highlighted with high contrast”.
Consider `CN1/C(=C/C=C/C=C/C=C/C2=[N+](C)c3ccc(F)cc3C2(C)C)C(C)(C)c2cc(F)ccc21` [QBN14], for which the “NIR fluorescence contrast of the thyroid” value with thyroid is on record as “highlighted with high contrast”. Also, the “NIR fluorescence contrast of the parathyroid” value with parathyroid was “highlighted with high contrast”.
With `CC1(C)C(/C=C/C2=C(NCCc3ccc(N)cc3)C(=C/C=C3/N(CCC[N+](C)(C)C)c4ccc(S(=O)(=O)O)cc4C3(C)C)/CCC2)=[N+](CCC[N+](C)(C)C)c2ccc(S(=O)(=O)O)cc21` [LN65], in the assay with seminal vesicle, the “NIR fluorescence contrast of the seminal vesicle” value is given as “highlighted with high contrast”.
Regarding `CCN1/C(=C/C=C/C=C/c2sc3cc(C)ccc3[n+]2CC)Sc2cc(C)ccc21` [SP60], the “NIR fluorescence contrast of the pituitary gland” value in the assay with pituitary gland is recorded as “highlighted with high contrast”.
